From patent US6455561B1, “Heterocyclic compounds and their therapeutic use” (Darwin Discovery, Ltd., priority 2000, dated 2002)

System: eosinophilia
Experiment: Guinea pig lung model (inhibition of eosinophilia)
Assay type: in vivo
Details: dosed at 3 mg/kg
Experimental: Activity in a guinea pig lung model is measured using the procedures described by Mauser et al, Am. Rev. Respir. Dis. 148:1623 (1993), and Am. J. Respir. Crit. Care Med. 152:467 (1995).

How did the inhibition of eosinophilia turn out when COCc1cc2c(C(=O)Nc3c(C)noc3C)ccc(OC)c2o1 [Example 10, 7-Methoxy-2-methoxymethylbenzofuran-4-carboxylic Acid (3,5-dimethylisoxazol-4-yl)-amide] was run?
Its inhibition of eosinophilia is 35%.
